“And” between values parts separate entries of the source, which are not always exact repeats. Equal entries are not always repeated.
Assays:
[1] = target: Glycogen synthase kinase-3 beta (Homo sapiens, UniProt P49841); test: TR-FRET Assay
Outline: (§1)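 30 min preinc w/ cpd in assay buffer → kinase rxn → EDTA quench → add detection mix (40 nM SA-d2, 2 nM Tb-pSer641 Ab) → TR-FRET read.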

[2] = target: Glycogen synthase kinase-3 alpha (Homo sapiens, UniProt P49840); test: TR-FRET Assay
Outline: as §1

Sequence of Glycogen synthase kinase-3 beta (P49841 whole entry): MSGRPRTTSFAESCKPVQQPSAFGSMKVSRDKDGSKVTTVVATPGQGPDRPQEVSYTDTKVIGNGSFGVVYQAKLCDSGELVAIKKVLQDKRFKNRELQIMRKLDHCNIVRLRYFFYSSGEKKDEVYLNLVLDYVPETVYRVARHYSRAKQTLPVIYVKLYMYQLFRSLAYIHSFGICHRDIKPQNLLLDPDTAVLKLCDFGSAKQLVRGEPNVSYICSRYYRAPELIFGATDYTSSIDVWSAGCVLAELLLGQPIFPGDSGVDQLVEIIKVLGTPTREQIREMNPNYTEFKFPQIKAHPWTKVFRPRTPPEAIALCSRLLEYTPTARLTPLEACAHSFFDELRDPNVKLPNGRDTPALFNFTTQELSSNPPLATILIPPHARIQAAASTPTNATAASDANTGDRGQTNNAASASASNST
Sequence of Glycogen synthase kinase-3 alpha (P49840 whole entry): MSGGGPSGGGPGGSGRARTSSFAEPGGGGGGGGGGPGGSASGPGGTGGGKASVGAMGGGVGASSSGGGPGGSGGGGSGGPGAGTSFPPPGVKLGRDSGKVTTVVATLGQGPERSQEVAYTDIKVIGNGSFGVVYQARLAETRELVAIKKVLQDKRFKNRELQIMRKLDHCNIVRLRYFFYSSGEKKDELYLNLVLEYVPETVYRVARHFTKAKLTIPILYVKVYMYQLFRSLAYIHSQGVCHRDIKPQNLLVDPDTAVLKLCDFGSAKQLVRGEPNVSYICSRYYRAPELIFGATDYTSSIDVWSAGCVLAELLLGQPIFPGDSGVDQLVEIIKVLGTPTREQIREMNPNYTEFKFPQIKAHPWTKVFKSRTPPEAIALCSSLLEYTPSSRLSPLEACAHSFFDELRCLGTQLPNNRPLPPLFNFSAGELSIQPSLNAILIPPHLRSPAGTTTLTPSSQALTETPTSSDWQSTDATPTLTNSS

SMILES | IC50 [1] | IC50 [2]
CCC1(c2cccc(-n3ccnc3)c2)C2=CN=NC2NC2=C1C(=O)CC(C)(C)C2 (stereo unspecified) [US20250313563, Compound 854926] | 100 to 1000 nM | < 100 nM
CCC1(c2cccc(-c3ccncc3)c2)C2=CN=NC2NC2=C1C(=O)CC(C)C2 (stereo unspecified) [US20250313563, Compound 856947] | 100 to 1000 nM | < 100 nM
CC1(C)CC(=O)C2=C(C1)NC1N=NC(CCC(F)(F)F)=C1[C@]2(C)c1ccccc1 (stereo partly specified) [US20250313563, Compound 856949] | < 100 nM | 100 to 1000 nM
CC[C@]1(c2cccc(C(F)(F)F)c2)C2=CN=NC2NC2=C1C(=O)N(C(C)C)CC2 (stereo partly specified) [US20250313563, Compound 857336] | 100 to 1000 nM | < 100 nM
CC[C@@]1(c2cccc(C(F)(F)F)c2)C2=CN=NC2NC2=C1C(=O)N(C(C)C)CC2 (stereo partly specified) [US20250313563, Compound 857362] | > 5000 nM | > 5000 nM
CCC1(c2ccccc2)C2=C(N=NC2)NC2=C1C(=O)C1CCC21 (stereo unspecified) [US20250313563, Compound 861716] | > 5000 nM | 1000 to 5000 nM
CCC1(c2ccccc2)C2=C(N=NC2)NC2=C1C(=O)C(C)(C)SC2 (stereo unspecified) [US20250313563, Compound 862028] | 1000 to 5000 nM | 100 to 1000 nM
CCC1(c2cccc(N(C)c3cccnc3)c2)C2=CN=NC2NC2=C1C(=O)CC(C)(C)C2 (stereo unspecified) [US20250313563, Compound 865168] | < 100 nM | < 100 nM
CC[C@]1(c2cccc(-c3ccnc(C)c3)c2)C2=CN=NC2NC2=C1C(=O)CC(C)(C)C2 (stereo partly specified) [US20250313563, Compound 865169] | 100 to 1000 nM and > 5000 nM | < 100 nM and 100 to 1000 nM
CCC1(c2cccc(N3CCCC3=O)c2)C2=CN=NC2NC2=C1C(=O)CC(C)(C)C2 (stereo unspecified) [US20250313563, Compound 865171] | 100 to 1000 nM | < 100 nM
CCC1(c2cccc(N3[C@H](C)CCC[C@@H]3C)c2)C2=CN=NC2NC2=C1C(=O)CC(C)(C)C2 (stereo partly specified) [US20250313563, Compound 865172] | 1000 to 5000 nM | 100 to 1000 nM
CC1(C)CC(=O)C2=C(C1)NC1=C(CN=N1)C21CCC(C(F)(F)F)CC1 (stereo unspecified) [US20250313563, Compound 865193] | < 100 nM and 1000 to 5000 nM | < 100 nM and 100 to 1000 nM
CCC1(c2cccc(CN(C)C(C)=O)c2)C2=CN=NC2NC2=C1C(=O)CC(C)(C)C2 (stereo unspecified) [US20250313563, Compound 865194] | 1000 to 5000 nM | 100 to 1000 nM
CCC1(c2cccc(CN(C)C(=O)C(C)C)c2)C2=CN=NC2NC2=C1C(=O)CC(C)(C)C2 (stereo unspecified) [US20250313563, Compound 865195] | > 5000 nM | 100 to 1000 nM
CCC1(c2cccc(CN(C)C(=O)COC)c2)C2=CN=NC2NC2=C1C(=O)CC(C)(C)C2 (stereo unspecified) [US20250313563, Compound 865196] | > 5000 nM | 100 to 1000 nM
CC[C@@]1(c2ccccc2)C2=CN=NC2NC2=C1C(=O)[C@@H](C)C[C@@H]2C (stereo partly specified) [US20250313563, Compound 865198] | 1000 to 5000 nM | 100 to 1000 nM
CC[C@]1(c2ccccc2)C2=CN=NC2NC2=C1C(=O)[C@H](C)C[C@H]2C (stereo partly specified) [US20250313563, Compound 865199] | > 5000 nM | 1000 to 5000 nM
CC[C@@]1(c2ccccc2)C2=CN=NC2NC2=C1C(=O)[C@H](C)C[C@H]2C (stereo partly specified) [US20250313563, Compound 865201] | 100 to 1000 nM | < 100 nM
CC[C@]1(c2ccccc2)C2=CN=NC2NC2=C1C(=O)[C@@H](C)C[C@@H]2C (stereo partly specified) [US20250313563, Compound 865202] | > 5000 nM | > 5000 nM
CCC1(c2cccc(C(F)(F)F)c2)C2=CN=NC2NC2=C1C(=O)NCC2 (stereo unspecified) [US20250313563, Compound 870263] | > 5000 nM | 100 to 1000 nM
CC[C@]1(c2cccc(N(C)c3ccncc3)c2)C2=CN=NC2NC2=C1C(=O)CC(C)(C)C2 (stereo partly specified) [US20250313563, Compound 874260] | 100 to 1000 nM | < 100 nM
CCC1(c2cccc(N(C)c3ccccn3)c2)C2=CN=NC2NC2=C1C(=O)CC(C)(C)C2 (stereo unspecified) [US20250313563, Compound 874294] | 100 to 1000 nM | < 100 nM
CCC1(c2cccc(N3CCOCC3)c2)C2=C(CC(C)(C)CC2=O)NC2N=NC(C)=C21 (stereo unspecified) [US20250313563, Compound 874312] | < 100 nM | < 100 nM
CCC1(COCc2ccccc2)C2=C(N=NC2)NC2=C1C(=O)CC(C)(C)C2 (stereo unspecified) [US20250313563, Compound 874313] | 1000 to 5000 nM | 1000 to 5000 nM

SMILES | IC50 [1] | IC50 [2]
CCC1(c2cccc(N3CCCC3)c2)C2=C(CC(C)(C)CC2=O)NC2N=NC(C)=C21 (stereo unspecified) [US20250313563, Compound 874314] | < 100 nM | < 100 nM
CC[C@@]1(c2cccc(-c3ccncc3)c2)C2=CN=NC2NC2=C1C(=O)C[C@H](C)C2 (stereo partly specified) [US20250313563, Compound 874316] | 1000 to 5000 nM | 100 to 1000 nM
CC[C@]1(c2cccc(-c3ccncc3)c2)C2=CN=NC2NC2=C1C(=O)C[C@@H](C)C2 (stereo partly specified) [US20250313563, Compound 874317] | < 100 nM | < 100 nM
CC[C@]1(c2cccc(-c3ccncc3)c2)C2=CN=NC2NC2=C1C(=O)C[C@H](C)C2 (stereo partly specified) [US20250313563, Compound 874318] | 100 to 1000 nM | < 100 nM
C[C@@H]1CCC[C@@]12C1=CN=NC1NC1=C2C(=O)CC(C)(C)C1 (stereo partly specified) [US20250313563, Compound 874319] | 1000 to 5000 nM | 1000 to 5000 nM
C[C@H]1CCC[C@]12C1=CN=NC1NC1=C2C(=O)CC(C)(C)C1 (stereo partly specified) [US20250313563, Compound 874320] | 1000 to 5000 nM | 1000 to 5000 nM
CC1(C)CC(=O)C2=C(C1)NC1N=NC(CCC(F)(F)F)=C1[C@@]21CCc2c(F)cccc21 (stereo partly specified) [US20250313563, Compound 874323] | 1000 to 5000 nM | 1000 to 5000 nM
CC1(C)CC(=O)C2=C(C1)NC1N=NC(CCC(F)(F)F)=C1[C@]21CCc2c(F)cccc21 (stereo partly specified) [US20250313563, Compound 874324] | 100 to 1000 nM | 100 to 1000 nM
CC1(C)CC(=O)C2=C(C1)NC1=C(CN=N1)C21CC2(CCCC2)C1 [US20250313563, Compound 874477] | < 100 nM and 1000 to 5000 nM | < 100 nM and 100 to 1000 nM
CC1(C)CC(=O)C2=C(C1)NC1=C(CN=N1)C21CCC1 [US20250313563, Compound 874509] | 100 to 1000 nM | 100 to 1000 nM
CC[C@@]1(c2ccccc2)C2=C(CC(C)(C)CC2=O)NC2N=NC(C(F)F)=C21 (stereo partly specified) [US20250313563, Compound 874510] | 100 to 1000 nM | 100 to 1000 nM
CC[C@]1(c2ccccc2)C2=C(CC(C)(C)CC2=O)NC2N=NC(C(F)F)=C21 (stereo partly specified) [US20250313563, Compound 874511] | 100 to 1000 nM | < 100 nM
CC1(C)CC(=O)C2=C(C1)NC1=C(CN=N1)C21CC(C(F)(F)F)C1 (stereo unspecified) [US20250313563, Compound 874527] | 100 to 1000 nM | < 100 nM
CC1(C)CC(=O)C2=C(C1)NC1=C(CN=N1)C21CCN(CC(F)(F)F)CC1 [US20250313563, Compound 874528] | 100 to 1000 nM | < 100 nM
CC1(C)CC(=O)C2=C(C1)NC1=C(CN=N1)C21CCN(c2ccncn2)CC1 [US20250313563, Compound 874529] | 1000 to 5000 nM | 100 to 1000 nM
CC1(C)CC(=O)C2=C(C1)NC1=C(CN=N1)C21CCN(S(=O)(=O)c2ccccc2)CC1 [US20250313563, Compound 874530] | < 100 nM and 1000 to 5000 nM | < 100 nM and 100 to 1000 nM
C[C@@H]1CCC[C@@]2(C1)C1=C(N=NC1)NC1=C2C(=O)CC(C)(C)C1 [US20250313563, Compound 874532] | < 100 nM | < 100 nM
CC1(C)CC(=O)C2=C(C1)NC1N=NC=C1C21CC2(CCOCC2)C1 (stereo unspecified) [US20250313563, Compound 874534] | < 100 nM and 100 to 1000 nM | < 100 nM and 100 to 1000 nM
CC1(C)CC(=O)C2=C(C1)NC1=C(CN=N1)[C@]21CCCOCC1 [US20250313563, Compound 874535] | < 100 nM | < 100 nM
CC1(C)CC(=O)C2=C(C1)NC1=C(CN=N1)[C@@]21CCCOCC1 [US20250313563, Compound 874536] | 1000 to 5000 nM | 100 to 1000 nM
C[C@@H]1CCC[C@]2(C1)C1=C(N=NC1)NC1=C2C(=O)CC(C)(C)C1 [US20250313563, Compound 874537] | 100 to 1000 nM | 100 to 1000 nM
CC1(C)CC(=O)C2=C(C1)NC1=C(CN=N1)C21CCC(c2ccccc2)CC1 (stereo unspecified) [US20250313563, Compound 874975] | < 100 nM | < 100 nM
CC[C@@]1(c2cccc(N(C)c3ccccn3)c2)C2=CN=NC2NC2=C1C(=O)CC(C)(C)C2 (stereo partly specified) [US20250313563, Compound 875568] | < 100 nM | < 100 nM
CC[C@]1(c2cccc(N(C)c3ccccn3)c2)C2=CN=NC2NC2=C1C(=O)CC(C)(C)C2 (stereo partly specified) [US20250313563, Compound 875608] | > 5000 nM | 1000 to 5000 nM
